Measured values from patent publication US20070128217A1 (priority 2003, published 2007).

How the values were obtained:
[1] = tested on: rabbit serum obtained by immunizing a rabbit with the SARS-CoV strain Frankfurt 1; assay type: binding; design: Binding of a rabbit serum to linear peptides / Binding of a rabbit serum to looped peptides / Rabbit serum linear peptides / Rabbit serum looped peptides / Binding of a rabbit serum to linear peptides of protein N of SARS-CoV Urbani (Rabbit serum linear peptides) / Binding of a rabbit serum to looped/cyclic peptides of protein N of SARS-CoV Urbani (Rabbit serum looped peptides): unit not given here
[2] = tested on: antibodies in sera from SARS patients (sera 1a, 1b, 2, 6, 37, 62, London, SARS-yellow, SARS-green); assay type: binding, human; design: Binding of serum 6 to linear peptides of protein X1 of SARS-CoV Urbani / Binding of serum 37 to linear peptides of protein X1 of SARS-CoV Urbani / Binding of serum 6 to looped/cyclic peptide (PEPSCAN-ELISA) / Binding of serum 37 to looped/cyclic peptide (PEPSCAN-ELISA) / Binding of serum 37 to looped/cyclic peptides of protein X1 of SARS-CoV Urbani / Binding of serum 6 to linear peptides of protein X2 / Binding of serum 37 to linear peptides of protein X2 / Binding of serum 37 to looped/cyclic peptides of protein X2 of SARS-CoV Urbani / Binding of serum 6 to linear peptides of protein M of SARS-CoV Urbani / Binding of serum 37 to linear peptides of protein M of SARS-CoV Urbani / Binding of serum 6 to looped/cyclic peptides of protein M of SARS-CoV Urbani / Binding of serum 37 to looped/cyclic peptides of protein M of SARS-CoV Urbani / Binding of serum 6 to linear peptides of protein X3 of SARS-CoV Urbani / Binding of serum 37 to linear peptides of protein X3 of SARS-CoV Urbani / Binding of serum 37 to looped/cyclic peptides of protein X3 of SARS-CoV Urbani / Binding of serum 6 to linear peptides of protein X4 of SARS-CoV Urbani / Binding of serum 37 to linear peptides of protein X4 of SARS-CoV Urbani / Binding of serum 37 to looped/cyclic peptides of protein X4 of SARS-CoV Urbani / Binding of serum 6 to linear peptides of protein X5 of SARS-CoV Urbani / Binding of serum 37 to linear peptides of protein X5 of SARS-CoV Urbani / Binding of serum 37 to looped/cyclic peptides of protein X5 of SARS-CoV Urbani / Binding of serum 6 to linear peptides of protein N of SARS-CoV Urbani / Binding of serum 37 to linear peptides of protein N of SARS-CoV Urbani / Binding of serum 6 to linear peptide (PEPSCAN-ELISA) / Binding of serum 1a to looped/cyclic peptides of protein N of SARS-CoV Urbani / Binding of serum 1b to looped/cyclic peptides of protein N of SARS-CoV Urbani / Binding of serum 2 to looped/cyclic peptides of protein N of SARS-CoV Urbani / Binding of serum 6 to looped/cyclic peptides of protein N of SARS-CoV Urbani / Binding of serum 37 to looped/cyclic peptides of protein N of SARS-CoV Urbani / Binding of serum 62 to looped/cyclic peptides of protein N of SARS-CoV Urbani / Binding of serum London to looped/cyclic peptides of protein N of SARS-CoV Urbani / Binding of serum SARS-green to looped/cyclic peptides of protein N of SARS-CoV Urbani: unit not given here
[3] = tested on: recombinant human anti-SARS-CoV antibody 03-018; assay type: binding; design: Binding of antibody 03-018 to linear peptides of the N protein of SARS-CoV Urbani / Binding of antibody 03-018 to looped/cyclic peptides of the N protein of SARS-CoV Urbani: unit not given here
[4] = tested on: control sera (pooled serum of ten healthy LUMC hospital workers; commercial negative donor pooled serum from the Dutch bloodbank); assay type: binding, human; design: Binding of Control serum LUMC to linear peptides / Binding of Control serum Blood-bank to linear peptides / Binding of Control serum LUMC to looped peptides / Binding of Control Serum Blood-Bank to Looped peptides / Binding of Control serum LUMC to linear peptides of the protein M of SARS-CoV Urbani / Binding of Control serum Blood-bank to linear peptides of the protein M of SARS-CoV Urbani / Binding of Control serum LUMC to looped peptides of the protein M of SARS-CoV Urbani / Binding of Control Serum Blood-Bank to Looped peptides of the protein M of SARS-CoV Urbani: unit not given here

Sequence | Binding of a rabbit serum to linear peptides of protein N of SARS-CoV Urbani (Rabbit serum linear peptides) [1] | Binding of a rabbit serum to looped/cyclic peptides of protein N of SARS-CoV Urbani (Rabbit serum looped peptides) [1] | Binding of serum 1a to looped/cyclic peptides of protein N of SARS-CoV Urbani [2] | Binding of serum 1b to looped/cyclic peptides of protein N of SARS-CoV Urbani [2] | Binding of serum 2 to looped/cyclic peptides of protein N of SARS-CoV Urbani [2] | Binding of serum 6 to looped/cyclic peptides of protein N of SARS-CoV Urbani [2] | Binding of serum 37 to looped/cyclic peptides of protein N of SARS-CoV Urbani [2] | Binding of serum 62 to looped/cyclic peptides of protein N of SARS-CoV Urbani [2] | Binding of serum London to looped/cyclic peptides of protein N of SARS-CoV Urbani [2] | Binding of serum SARS-green to looped/cyclic peptides of protein N of SARS-CoV Urbani [2] | Binding of serum SARS-yellow to looped/cyclic peptides of protein N of SARS-CoV Urbani [2] | Binding of antibody 03-018 to linear peptides of the N protein of SARS-CoV Urbani [3] | Binding of antibody 03-018 to looped/cyclic peptides of the N protein of SARS-CoV Urbani [3] | Binding of Control Serum Blood-Bank to Looped peptides [4] | Binding of Control serum Blood-bank to linear peptides [4] | Binding of Control serum LUMC to linear peptides [4] | Binding of Control serum LUMC to looped peptides [4] | Binding of serum 1a to linear peptides of protein N of SARS-CoV Urbani [2] | Binding of serum 1b to linear peptides of protein N of SARS-CoV Urbani [2] | Binding of serum 2 to linear peptides of protein N of SARS-CoV Urbani [2] | further results
TKKSAAEASKKPRQK | 0.1 | 0.2 | 0.2 | 0.1 | 0.2 | 0.1 | 0.4 | 0.3 | 0.3 | 0.0 | 0.2 | 0.1 | 0.2 | 0.4 | 0.8 | 0.9 | 0.4 | – | – | – | Recognition of the peptide by sera of SARS-CoV infected individuals, and form (linear, looped/cyclic) in which it is recognized [2]: recognized in linear form
TNSGPDDQIGYYRRA | 0.2 | 0.5 | 0.5 | 0.4 | 0.5 | 0.3 | 0.9 | 0.8 | 0.6 | 0.6 | 0.7 | 0.1 | 0.2 | 0.7 | 1.2 | 0.9 | 0.9 | 0.3 | 0.2 | 0.2 | Binding of serum 6 to linear peptides of protein N of SARS-CoV Urbani [2]: 0.2; Binding of serum 37 to linear peptides of protein N of SARS-CoV Urbani [2]: 0.7; Binding of serum 62 to linear peptides of protein N of SARS-CoV Urbani [2]: 0.7; Binding of serum London to linear peptides of protein N of SARS-CoV Urbani [2]: 0.5; Binding of serum SARS-green to linear peptides of protein N of SARS-CoV Urbani [2]: 0.4; Binding of serum SARS-yellow to linear peptides of protein N of SARS-CoV Urbani [2]: 0.6
TPKDHIGTRNPNNNA | 0.1 | 0.4 | 0.3 | 0.3 | 0.3 | 0.2 | 0.5 | 0.3 | 0.3 | 0.3 | 0.3 | 0.1 | 0.2 | 0.5 | 0.9 | 0.9 | 0.6 | 0.3 | 0.1 | 0.3 | Binding of serum 6 to linear peptides of protein N of SARS-CoV Urbani [2]: 0.2; Binding of serum 37 to linear peptides of protein N of SARS-CoV Urbani [2]: 0.9; Binding of serum 62 to linear peptides of protein N of SARS-CoV Urbani [2]: 0.8; Binding of serum London to linear peptides of protein N of SARS-CoV Urbani [2]: 0.5; Binding of serum SARS-green to linear peptides of protein N of SARS-CoV Urbani [2]: 0.4; Binding of serum SARS-yellow to linear peptides of protein N of SARS-CoV Urbani [2]: 0.7
